Tests used:
Settings in all cases: 48 h
NOMO1 [1] = assay: cell viability relative to DMSO control; higher = less cytotoxic
Outline: (§1)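 Viability is expressed as a percentage of DMSO wells within each plate, and cell-free wells serve as background. Seeding densities in the 1536-well plates (5 μl) were 500 cells/well for NOMO1 or SEM leukemia cells and 1000 cells/well for P12-Ichikawa. Each line was adapted for at least four passages in each medium. Library compounds in DMSO were pin-dosed at 47 μM to 0.79 nM (11 points, threefold), and CellTiter-Glo One luminescence was read after 48 h at 37°C.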

P12-Ichikawa [2] = assay: as above
Outline: as §1

SEM cells [3] = assay: as above
Outline: as §1

NOMO1 [4] = assay: AUC of viability dose-response curve (% viability x log10 dose units); higher = less sensitive
Outline: (§2)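 In 1536-well plates, leukemia cells adapted to each medium (500 or 1000 cells/well) were exposed for 48 h at 37°C to library compounds in DMSO across 11 threefold doses, 47 μM down to 0.79 nM. Viability was read by CellTiter-Glo One luminescence and normalised per plate to DMSO and cell-free wells. A four-parameter log-logistic fit over log10 doses was integrated by trapezoidal rule. This yielded the area under the curve, with over-full-viability curves scaled and quality-control failures dropped.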

P12-Ichikawa [5] = assay: as above
Outline: as §2

SEM cells [6] = assay: as above
Outline: as §2

N[C@H]2CN(CC12CC1)c3c(F)cc4c(c3Cl)[N@@](C=C(C4=O)C(=O)O)C5C[C@H]5F (some centres undefined)
cell viability [%]
Settings	NOMO1 [1]	P12-Ichikawa [2]	SEM cells [3]
HPLM + 10% dialyzed FBS, 0.000781 µM	98.5	97.7	90.7
HPLM + 10% dialyzed FBS, 0.00234 µM	110	91.2	93.2
HPLM + 10% dialyzed FBS, 0.00702 µM	98.1	101	89.9
HPLM + 10% dialyzed FBS, 0.0211 µM	102	87.6	88.9
HPLM + 10% dialyzed FBS, 0.0632 µM	98.2	96.6	92.2
HPLM + 10% dialyzed FBS, 0.19 µM	89.5	89.8	86.4
HPLM + 10% dialyzed FBS, 0.569 µM	83.2	87.3	84.3
HPLM + 10% dialyzed FBS, 1.71 µM	84	96.1	84.7
HPLM + 10% dialyzed FBS, 5.12 µM	94	88.8	90.5
HPLM + 10% dialyzed FBS, 15.4 µM	50.4	85.4	60.6
HPLM + 10% dialyzed FBS, 46.1 µM	92.1	89.9	84.6
RPMI 5 mM glucose + 10% FBS, 0.000781 µM	83.7	79.9	107
RPMI 5 mM glucose + 10% FBS, 0.00234 µM	92	91	126
RPMI 5 mM glucose + 10% FBS, 0.00702 µM	89.1	88.8	112
RPMI 5 mM glucose + 10% FBS, 0.0211 µM	78.6	90.4	119
RPMI 5 mM glucose + 10% FBS, 0.0632 µM	90.2	85.8	103
RPMI 5 mM glucose + 10% FBS, 0.19 µM	83.5	94.5	136
RPMI 5 mM glucose + 10% FBS, 0.569 µM	72.1	83	73.2
RPMI 5 mM glucose + 10% FBS, 1.71 µM	82	82.9	113
RPMI 5 mM glucose + 10% FBS, 5.12 µM	75.2	95	103
RPMI 5 mM glucose + 10% FBS, 15.4 µM	48.4	83.5	74.6
RPMI 5 mM glucose + 10% FBS, 46.1 µM	97.1	86.1	95.4
RPMI 5 mM glucose + 10% dialyzed FBS, 0.000781 µM	76.7	80.7	71.1
RPMI 5 mM glucose + 10% dialyzed FBS, 0.00234 µM	91	84.8	83
RPMI 5 mM glucose + 10% dialyzed FBS, 0.00702 µM	91.2	86	92.4
RPMI 5 mM glucose + 10% dialyzed FBS, 0.0211 µM	94.9	88.3	83.8
RPMI 5 mM glucose + 10% dialyzed FBS, 0.0632 µM	98.1	82.5	92.2
RPMI 5 mM glucose + 10% dialyzed FBS, 0.19 µM	86.5	85.2	92.5
RPMI 5 mM glucose + 10% dialyzed FBS, 0.569 µM	81.9	80.9	75.6
RPMI 5 mM glucose + 10% dialyzed FBS, 1.71 µM	91.3	78	98.6
RPMI 5 mM glucose + 10% dialyzed FBS, 5.12 µM	89.8	84.2	91
RPMI 5 mM glucose + 10% dialyzed FBS, 15.4 µM	69	77.7	50.1
RPMI 5 mM glucose + 10% dialyzed FBS, 46.1 µM	77	81.3	78.7

AUC of viability dose-response curve
Settings	NOMO1 [4]	P12-Ichikawa [5]	SEM cells [6]
HPLM + 10% dialyzed FBS	420	439	412
RPMI 5 mM glucose + 10% FBS	387	417	431
RPMI 5 mM glucose + 10% dialyzed FBS	413	395	398

O=C(CC12CC3CC(CC(C3)C1)C2)Nc1cccc2nc(NCCNCCO)ccc12
cell viability [%]
Settings	NOMO1 [1]	P12-Ichikawa [2]	SEM cells [3]
HPLM + 10% dialyzed FBS, 0.000781 µM	79.1	87.7	81.1
HPLM + 10% dialyzed FBS, 0.00234 µM	95.5	88.7	82.1
HPLM + 10% dialyzed FBS, 0.00702 µM	89.4	84.5	73.8
HPLM + 10% dialyzed FBS, 0.0211 µM	106	90.8	96.5
HPLM + 10% dialyzed FBS, 0.0632 µM	98	88.1	78.2
HPLM + 10% dialyzed FBS, 0.19 µM	90.7	91.2	77.8
HPLM + 10% dialyzed FBS, 0.569 µM	101	98.2	93.8
HPLM + 10% dialyzed FBS, 1.71 µM	89.8	88.1	64.1
HPLM + 10% dialyzed FBS, 5.12 µM	103	95.7	84.6
HPLM + 10% dialyzed FBS, 15.4 µM	90.7	92	101
HPLM + 10% dialyzed FBS, 46.1 µM	36.6	56.7	36.3
RPMI 5 mM glucose + 10% FBS, 0.000781 µM	81.2	84.7	90.5
RPMI 5 mM glucose + 10% FBS, 0.00234 µM	89.8	87.2	99.3
RPMI 5 mM glucose + 10% FBS, 0.00702 µM	83.9	85.6	83.6
RPMI 5 mM glucose + 10% FBS, 0.0211 µM	87.8	89.4	96.3
RPMI 5 mM glucose + 10% FBS, 0.0632 µM	82.4	88.8	75.6
RPMI 5 mM glucose + 10% FBS, 0.19 µM	90.5	86.3	76.1
RPMI 5 mM glucose + 10% FBS, 0.569 µM	81	87.4	94.4
RPMI 5 mM glucose + 10% FBS, 1.71 µM	87.4	81.9	83.3
RPMI 5 mM glucose + 10% FBS, 5.12 µM	86.4	89.2	82.7
RPMI 5 mM glucose + 10% FBS, 15.4 µM	96.4	94.1	101
RPMI 5 mM glucose + 10% FBS, 46.1 µM	54.1	57.6	21.9
RPMI 5 mM glucose + 10% dialyzed FBS, 0.000781 µM	73.5	82	82.8
RPMI 5 mM glucose + 10% dialyzed FBS, 0.00234 µM	90.7	86.6	87.7
RPMI 5 mM glucose + 10% dialyzed FBS, 0.00702 µM	83.2	85.7	65.3
RPMI 5 mM glucose + 10% dialyzed FBS, 0.0211 µM	97.2	99.4	94.8
RPMI 5 mM glucose + 10% dialyzed FBS, 0.0632 µM	86.7	91.4	81.6
RPMI 5 mM glucose + 10% dialyzed FBS, 0.19 µM	80.5	94.8	72.5
RPMI 5 mM glucose + 10% dialyzed FBS, 0.569 µM	82.4	90.3	102
RPMI 5 mM glucose + 10% dialyzed FBS, 1.71 µM	82.3	85.8	78.7
RPMI 5 mM glucose + 10% dialyzed FBS, 5.12 µM	77.4	77.6	94.6
RPMI 5 mM glucose + 10% dialyzed FBS, 15.4 µM	95.3	93.8	82.6
RPMI 5 mM glucose + 10% dialyzed FBS, 46.1 µM	57.7	42.4	40

AUC of viability dose-response curve
Settings	NOMO1 [4]	P12-Ichikawa [5]	SEM cells [6]
HPLM + 10% dialyzed FBS	436	424	386
RPMI 5 mM glucose + 10% FBS	406	410	405
RPMI 5 mM glucose + 10% dialyzed FBS	399	412	392

CCN1C[C@H](C)[N]2C(=C(O)C3=C2\C(=N/N(CC4=CC=C(F)C(=C4)Cl)C3=O)C(=O)NC)C1=O
cell viability [%]
Settings	NOMO1 [1]	P12-Ichikawa [2]	SEM cells [3]
HPLM + 10% dialyzed FBS, 0.000781 µM	107	111	104
HPLM + 10% dialyzed FBS, 0.00234 µM	125	116	103
HPLM + 10% dialyzed FBS, 0.00702 µM	118	126	105
HPLM + 10% dialyzed FBS, 0.0211 µM	126	102	107
HPLM + 10% dialyzed FBS, 0.0632 µM	120	124	106
HPLM + 10% dialyzed FBS, 0.19 µM	131	121	102
HPLM + 10% dialyzed FBS, 0.569 µM	98.2	111	109
HPLM + 10% dialyzed FBS, 1.71 µM	92.5	97.4	50.4
HPLM + 10% dialyzed FBS, 5.12 µM	96.5	103	98.5
HPLM + 10% dialyzed FBS, 15.4 µM	58	107	100
HPLM + 10% dialyzed FBS, 46.1 µM	11.9	112	94
RPMI 5 mM glucose + 10% FBS, 0.000781 µM	107	103	115
RPMI 5 mM glucose + 10% FBS, 0.00234 µM	98.3	115	115
RPMI 5 mM glucose + 10% FBS, 0.00702 µM	111	115	117
RPMI 5 mM glucose + 10% FBS, 0.0211 µM	111	110	103
RPMI 5 mM glucose + 10% FBS, 0.0632 µM	104	113	110
RPMI 5 mM glucose + 10% FBS, 0.19 µM	96	114	106
RPMI 5 mM glucose + 10% FBS, 0.569 µM	97.7	111	105
RPMI 5 mM glucose + 10% FBS, 1.71 µM	99.2	101	18
RPMI 5 mM glucose + 10% FBS, 5.12 µM	96.3	101	100
RPMI 5 mM glucose + 10% FBS, 15.4 µM	80.3	105	103
RPMI 5 mM glucose + 10% FBS, 46.1 µM	11.4	94.7	98.9
RPMI 5 mM glucose + 10% dialyzed FBS, 0.000781 µM	106	102	101
RPMI 5 mM glucose + 10% dialyzed FBS, 0.00234 µM	115	105	121
RPMI 5 mM glucose + 10% dialyzed FBS, 0.00702 µM	107	108	125
RPMI 5 mM glucose + 10% dialyzed FBS, 0.0211 µM	121	116	117
RPMI 5 mM glucose + 10% dialyzed FBS, 0.0632 µM	118	105	125
RPMI 5 mM glucose + 10% dialyzed FBS, 0.19 µM	98.4	101	121
RPMI 5 mM glucose + 10% dialyzed FBS, 0.569 µM	102	117	122
RPMI 5 mM glucose + 10% dialyzed FBS, 1.71 µM	111	108	51.6
RPMI 5 mM glucose + 10% dialyzed FBS, 5.12 µM	92.6	89.7	115
RPMI 5 mM glucose + 10% dialyzed FBS, 15.4 µM	65.6	92.4	112
RPMI 5 mM glucose + 10% dialyzed FBS, 46.1 µM	13.9	92.5	105

AUC of viability dose-response curve
Settings	NOMO1 [4]	P12-Ichikawa [5]	SEM cells [6]
HPLM + 10% dialyzed FBS	408	458	440
RPMI 5 mM glucose + 10% FBS	442	460	409
RPMI 5 mM glucose + 10% dialyzed FBS	427	459	443

From the supplement of paper PMC11451515
